Type in all cases: in vivo
Assay [1] has as its system soybean (Glycine max var. Winchester). Put plainly: Preemergence herbicidal activity, soybean. As to conditions: Glycine max, pre-emergence, Rate of Application 0.3 Kg/Ha, examined after 12-17 days, read-out: PREEMERGENCE HERBICIDAL ACTIVITY (% CONTROL) SOY.
Assay [2] deals with wheat (Triticum aestivum var. Lew). As to the kind of experiment: Preemergence herbicidal activity, wheat. As to conditions: Triticum aestivum, pre-emergence, Rate of Application 0.3 Kg/Ha, examined after 12-17 days, read-out: PREEMERGENCE HERBICIDAL ACTIVITY (% CONTROL) WHT.
Assay [3] has as its system velvetleaf (Abutilon theophrasti). Put plainly: Preemergence herbicidal activity, velvetleaf. As to conditions: Abutilon theophrasti, pre-emergence, Rate of Application 0.3 Kg/Ha, examined after 12-17 days, read-out: PREEMERGENCE HERBICIDAL ACTIVITY (% CONTROL) ABUTH.
For assay [4], the system named is morningglory (Ipomea lacunosa or Ipomea hederacea). Put plainly: Preemergence herbicidal activity, morningglory. The note with it: Ipomoea, pre-emergence, Rate of Application 0.3 Kg/Ha, examined after 12-17 days, read-out: PREEMERGENCE HERBICIDAL ACTIVITY (% CONTROL) IPOSS.
Assay [5] concerns common chickweed (Stellaria media). Put plainly: Preemergence herbicidal activity, chickweed. The note with it: Stellaria media, pre-emergence, Rate of Application 0.3 Kg/Ha, examined after 12-17 days, read-out: PREEMERGENCE HERBICIDAL ACTIVITY (% CONTROL) STEME.
Assay [6] has as its system common cocklebur (Xanthium strumarium L.). Put plainly: Preemergence herbicidal activity, cocklebur. The note with it: Xanthium strumarium, pre-emergence, Rate of Application 0.3 Kg/Ha, examined after 12-17 days, read-out: PREEMERGENCE HERBICIDAL ACTIVITY (% CONTROL) XANPE.
Assay [7] has as its system blackgrass (Aloepecurus myosuroides). Put plainly: Preemergence herbicidal activity, blackgrass. As to conditions: Alopecurus myosuroides, pre-emergence, Rate of Application 0.3 Kg/Ha, examined after 12-17 days, read-out: PREEMERGENCE HERBICIDAL ACTIVITY (% CONTROL) ALOMY.
The subject of assay [8] is green foxtail (Setaria viridis). Put plainly: Preemergence herbicidal activity, green foxtail. As to conditions: Setaria viridis, pre-emergence, Rate of Application 0.3 Kg/Ha, examined after 12-17 days, read-out: PREEMERGENCE HERBICIDAL ACTIVITY (% CONTROL) SETVI.
The test system of assay [9] is wheat (Triticum aestivum var. Lew). As to the kind of experiment: Postemergence herbicidal activity, wheat. The note with it: Triticum aestivum, post-emergence, rate of application 0.3 Kg/Ha, rated after 12-17 days, read-out: Postemergence herbicidal activity (% control) WHT.
Assay [10] relates to field corn (Zea mays var. Pioneer 3732). As to the kind of experiment: Postemergence herbicidal activity, corn. The note with it: Zea mays, post-emergence, rate of application 0.3 Kg/Ha, rated after 12-17 days, read-out: Postemergence herbicidal activity (% control) CRN.
Assay [11] concerns velvetleaf (Abutilon theophrasti). Put plainly: Postemergence herbicidal activity, velvetleaf. As to conditions: Abutilon theophrasti, post-emergence, rate of application 0.3 Kg/Ha, rated after 12-17 days, read-out: Postemergence herbicidal activity (% control) ABUTH.
In assay [12] the test system is common cocklebur (Xanthium strumarium L.). Put plainly: Postemergence herbicidal activity, cocklebur. The note with it: Xanthium strumarium, post-emergence, rate of application 0.3 Kg/Ha, rated after 12-17 days, read-out: Postemergence herbicidal activity (% control) XANPE.
The subject of assay [13] is blackgrass (Aloepecurus myosuroides). As to the kind of experiment: Postemergence herbicidal activity, blackgrass. As to conditions: Alopecurus myosuroides, post-emergence, rate of application 0.3 Kg/Ha, rated after 12-17 days, read-out: Postemergence herbicidal activity (% control) ALOMY.
Assay [14] deals with green foxtail (Setaria viridis). Put plainly: Postemergence herbicidal activity, green foxtail. The note with it: Setaria viridis, post-emergence, rate of application 0.3 Kg/Ha, rated after 12-17 days, read-out: Postemergence herbicidal activity (% control) SETVI.

Regarding `CC(C)c1nc2c(-n3c(=O)cc(C(F)(F)F)n(C)c3=O)c(F)cc(Cl)c2o1` [Compound 28, 1-METHYL-6-TRIFLUOROMETHYL-3-[7-CHLORO-5-FLUORO-2-(1-METHYLETHYL)BENZOXAZOL4-YL]-2,4(1H,3H)-PYRIMIDINEDIONE], the inhibition at 300 g/ha in assay [1], in assay [2], in [3], in assay [4], in assay [5] and in assay [6] was 100% throughout. Further, the inhibition at 300 g/ha in [7] stood at 100%; in assay [8], 100%; in [9] it was 80%; in [10] it was 80%; in assay [11], 100%; in [12], 90%. In addition, the inhibition at 300 g/ha in assay [13] and in assay [14] was 100% in each case.

On to `CCc1nc2c(-n3c(=O)cc(C(F)(F)F)n(C)c3=O)c(F)cc(Cl)c2[nH]1` [Compound 367, 3-(4-CHLORO-2-ETHYL-6-FLUOROBENZIMIDAZOL-7-YL)-1-METHYL-6-TRIFLUOROMETHYL-2,4(1H,3H)-PYRIMIDINEDIONE], for which the inhibition at 300 g/ha in assay [1] came to 100%; in assay [2], 95%; in assay [3], 100%; in assay [4], 100%; in assay [5], 100%; in assay [6] it was 100%. Moreover, the inhibition at 300 g/ha worked out at 90% in [7]; 100% in assay [8]; 100% in assay [9]; 100% in assay [10]; 100% in [11]; 100% in assay [12]. For the same molecule, the inhibition at 300 g/ha in [13] and in assay [14] was 100% throughout.

Take `Cn1c(C(F)(F)F)cc(=O)n(-c2c(F)cc(Cl)c3[nH]c(C(F)(F)F)cc23)c1=O` [Compound 500, 3-(7-CHLORO-5-FLUORO-2-TRIFLUOROMETHYLINDOL-4-YL)-1-METHYL-6-TRIFLUOROMETHYL-2,4(1H,3H)-PYRIMIDINEDIONE]: the inhibition at 300 g/ha in [1] was determined as 95%; in [2], 75%; in assay [3] it was 100%; in [4] it was 100%; in [5] it was 100%; in [6] it was 100%. The inhibition at 300 g/ha in assay [7] was determined as 75%; in [8] it was 100%; in [9] it was 65%; in [10] it was 95%; in assay [11], 100%; in [12] it was 100%. Also, the results for the inhibition at 300 g/ha in [13] and in [14] were 80% and 100%, respectively.

These data come from US6352958B1, “Cycloimido-substituted benzofused heterocyclic herbicides” (FMC Corporation, priority 1997, dated 2002).
